Measured values as given in patent US20250388542A1, “ANALOGUES OF PENTAMIDINE AND USES THEREFOR” (Auransa Inc., priority 2018, published 2025).

Assays:
Human microsomal CL rate = format: in vitro ADME; conditions: human microsomes
NCI-H209 = assay: CellTiter-Glo luminescent cell viability assay; format: cell-based; conditions: Homo sapiens
Description: (§1) The objective of this study is to investigate potential cell killing effect of Compounds 1-15 on 3 cancer cell lines. 50% inhibition concentration (IC50) was determined for these compounds in various cancer cell lines using CellTiter-Glo™ luminescent cell viability assay at different compound concentrations. Each cell line (e.g., NCI-H209; NCI-H69; and SW1271) was treated with Compounds 1-15 and culture medium contains 0.2% [v/v] DMSO vehicle control. All the cells were cultured in the media supplemented with 10-20% fetal bovine serum at 37° C., 5% CO2 and 95% humidity.

NCI-H69 = assay: CellTiter-Glo luminescent cell viability assay; format: cell-based; conditions: Homo sapiens
Description: as §1

SW1271 = assay: CellTiter-Glo luminescent cell viability assay; format: cell-based
Description: as §1

HEP3B2.7-1 = assay: CellTiter-Glo cell viability, liver cell lines, 8 days; format: cell-based; conditions: HEP3B2.7-1, Table 5, similar experiment
Description: (§2) The objective of this study is to investigate the effect of Compound 1 on cell viability of various types of liver cancer. Ten (10) different liver cancer cell lines were employed in the study. Each liver cell line shown in Table 4 was treated with Compound 1, pentamidine, as reference control, a standard of care (cisplatin) and culture medium contains 0.2% [v/v] DMSO vehicle control and IC50 values were obtained as described above. The raw data values from the CellTiter-Glo™ cell viability assay expressed in relative luminescence units were normalized to the vehicle for each individual plate, and any reduction in luminescence indicated a decrease in viability (%). The data was analyzed in GraphPad PRISM using a non-linear sigmoidal plot with variable slope (asymmetric four-point linear regression), and an IC50 value for each compound was generated. The experiment tested pentamidine, compound 1, and standard-of-care control Cisplatin in full growth media for 8 days. Cells were initially treated with the test compounds on Day 0, and the cells were then replenished with fresh compound dilutions on Day 3. Pentamidine, Compound 1, and cisplatin were tested at 9 concentration points; 100, 33.33, 11.11, 3.70, 1.23, 0.41, 0.14, 0.05, and 0.02 μM (final DMSO concentration=0.5%). In particular, the IC50 values of pentamidine and Compound 1 were 0.8 and 0.6 μM in Hep3B-luc, respectively.

SK-HEP-1 = assay: as above; format: cell-based; conditions: Homo sapiens, SK-HEP1, SK-HEP-1, Table 5, similar experiment
Description: as §2

[1] = Pharmacokinetics in liver and tissues after oral administration; format: in vivo, mice; conditions: p.o.
Description: Compound 1 (20 mg per kg), Compound 5 (10 mg per kg), and pentamidine (20 mg per kg) were tested for their PK. Tissue samples were collected as described above in Example 23. Briefly, blood samples (approximately […]) were collected under light isoflurane anesthesia from retro orbital plexus of mice at 0.5, 1, 3, 8, 48 and 72 hr. Plasma samples were separated by centrifugation at 2,000×g for 6 minutes and stored below −70±10° C. until bioanalysis. Immediately after collection of blood, animals were euthanized using excess CO2 asphyxiation and samples were collected from set of five mice at each time point. Collected tissue samples were immediately dipped and rinsed three times in ice cold PBS (for 5-10 seconds/rinse using ˜5-10 mL fresh PBS in disposable petri dish for each rinse) and dried on blotting paper. Tissue samples were homogenized using ice-cold phosphate buffer saline (pH7.4) and homogenates were stored below −70±10° C. until analysis. Total homogenate volume was three times the tissue weight except for liver samples, total homogenate volume was ten times the liver weight. Bioanalysis process was determined by fit-for-purpose LC-MS/MS method.
Calibration standards were prepared by spiking the test compound into blank plasma. 10 μL of working calibration standard was spiked into 190 μL of blank Mice Plasma or tissue homogenate to generate linearly spiked calibration standards. Calibrator concentrations were 5,000, 2,000, 1,000, 200, 100, 20, 10, 2 and 1 ng/mL. Calibration standard samples were processed along with the test samples. Twenty-five μL aliquots of plasma or tissue homogenate test samples were treated with 100 μL of acetonitrile containing internal standard (500 ng/mL Glipizide). Samples were vortexed for 5 minutes. Samples were centrifuged for 10 minutes at a speed of 4000 rpm at 4° C. Following centrifugation, 100 μL of clear supernatant was transferred in 96-well plates of and analyzed using LC-MS/MS. Chromatographic separation was achieved using a Kintex Polar column (C18, 100×4.6 mm, 5μ) and column oven temperature 45° C. For compound 1 diHCl the mobile phase A was water with 0.1% formic acid in Acetonitrile; mobile phase B was 10 mM ammonium formate. However, the mobile phase for pentamidine and Compound 5 mobile phase A was water with 0.1% formic acid and mobile phase B acetonitrile with 0.1% formic acid.
The gradient program for Compound 1 was as follows: 5% B (1-2.40 min), 90% B (2.60-3.00 min), and the initial for B was 90%. The retention rate was 1.47 per minute and the internal standard Glipizide was 1 per 9 minutes. The column was maintained at 45° C. For pentamidine and Compound 5, analysis was performed using 233 MassSpec by AB Sciex API5000 with Turbo Ion Spray interface operating in a positive ionization mode. Quantification was performed using multiple reaction monitoring (MRM) method with the transitions of (m/z) 328 à (m/z) 311 for Compound 5 and (m/z) 548 à (m/z) 366 for Edoxaban (internal standard). While, for pentamidine (m/z) 341 à (m/z) 324 and (m/z) 548 à (m/z) 366 for Verapmil (internal standard).
The gradient program for Compound 5 was as follows: 10% B (0-0.2 min), 95% B (1.5-2 min), the initial for B was 10% and it stopped at 2.6 mins. The flow rate was 0.5 mL/min. The gradient program for pentamidine was as follows: 10% B (0-0.2 min), 95% B (1.4-2 min), the initial for B was 10% and it stopped at 2.5 mins. The flow rate was 0.5 mL/min.

[2] = tested on: A549-NLR cells with anti-CD3 stimulated PBMC; assay: Primary human T cell killing assay; format: cell-based
Description: In this study, A549-NLR cells were cultured alone or with PBMC's isolated from blood of three healthy donors in the presence of anti-CD3 stimulation. […] A549 growth was quantified by enumerating NucLight+ cells and A549 apoptosis by Caspase-3/7+ expression (colocalised to NucLight signal) every 2 hours for 96 hours.
All test conditions were applied to A549-NLR cells in the presence of stimulated PBMC. The number of A549 cells was tracked by IncuCyte live cell imaging over 96 hrs. The number of A549 cells at each time-point was counted and expressed as a percentage of the starting number (on a per well basis). At each time-point, the frequency of target cell apoptosis was quantified.

Compound: N=C(N)c1ccc(OCCCCCOc2ccc(C(=N)N)cn2)cc1 [Compound 2, 6-((5-(4-carbamimidoylphenoxy)pentyl)oxy)nicotinimidamide]
- microsomal CLint (Human microsomal CL rate): 9.8 µL/min/mg
- IC50 (NCI-H209): 9.38 µM
- IC50 (NCI-H69): 3.48 µM
- IC50 (SW1271): 1.6 µM

Compound: N=C(N)c1ccc(OCCCCCOc2cnc(C(=N)N)nc2)cc1 [Compound 3, 5-((5-(4-carbamimidoylphenoxy)pentyl)oxy)pyrimidine-2-carboximidamide]
- IC50 (NCI-H209): 3.47 µM
- IC50 (NCI-H69): 2.91 µM
- IC50 (SW1271): 3.47 µM

Compound: N=C(N)c1ccc(OCCCCCOc2cnc(C(=N)N)cn2)cc1 [Compound 4, 5-((5-(4-carbamimidoylphenoxy)pentyl)oxy)pyrazine-2-carboximidamide]
- IC50 (HEP3B2.7-1): 1.91 µM
- IC50 (SK-HEP-1): 5.95 µM

Compound: N=C(N)c1ccc(OCCCCOc2ccc(C(=N)N)nc2)cc1 [Compound 5, 5-(4-(4-carbamimidoylphenoxy)butoxy)picolinimidamide]
- microsomal CLint (Human microsomal CL rate): 3.9 µL/min/mg
- IC50 (NCI-H209): 2.78 µM
- IC50 (NCI-H69): 0.876 µM
- IC50 (HEP3B2.7-1): 0.207 µM
- IC50 (SK-HEP-1): 0.73 µM
- exposure to the liver vs pentamidine (20 mpk) ([1]; Compound 1 20 mpk, Compound 5 10 mpk): greater exposure to the liver than pentamidine
- half-life relative to Compound 1 ([1]; liver): approximately 3 fold
- half-life vs pentamidine ([1]; liver): higher half-life than pentamidine
- tissue exposure ([1]; liver, small intestine, ileum): increased exposure in the liver as well as small intestine and ileum
- exposure to the plasma ([1]; plasma vs other tissues): low in comparison to other tissues

Compound: N=C(N)c1cnc(OCCCCCOc2cnc(C(=N)N)cn2)cn1 [Compound 7, 5,5′-(pentane-1,5-diylbis(oxy))bis(pyrazine-2-carboximidamide)]
- IC50 (NCI-H69): 0.804 µM
- immune cell-mediated A549 cell apoptosis (Caspase-3/7+) ([2]; 0.3, 1 and 3 μM, three donors, 96 hours): enhancement of immune cell-mediated A549 cell apoptosis in 2 of 3 donors in a dose dependent manner
- effect compared with positive control (IL-2) ([2]; highest concentration tested (3 μM)): comparable effect to the positive control (IL-2)

Compound: N=C(N)c1cccc(CCCCCCCc2cccc(C(=N)N)n2)n1 [Compound 8, 6,6′-(heptane-1,7-diyl)dipicolinimidamide]
- microsomal CLint (Human microsomal CL rate): 11 µL/min/mg
- IC50 (NCI-H69): 0.687 µM

Compound: N=C(N)c1cncc(CCCCCCCc2cncc(C(=N)N)c2)c1 [Compound 9, 5,5′-(heptane-1,7-diyl)dinicotinimidamide]
- microsomal CLint (Human microsomal CL rate): 13 µL/min/mg
- IC50 (NCI-H69): 5.28 µM

Compound: N=C(N)c1ccc(CCCCCCCc2ccc(C(=N)N)cn2)nc1 [Compound 10, 6,6′-(heptane-1,7-diyl)dinicotinimidamide]
- IC50 (NCI-H69): 22.2 µM

Compound: N=C(N)c1cccc(OCCCCCOc2ccc(C(=N)N)nc2)c1 [Compound 11, 5-(5-(3-carbamimidoylphenoxy)pentyloxy)picolinimidamide]
- microsomal CLint (Human microsomal CL rate): 5.2 µL/min/mg
- IC50 (NCI-H69): 0.62 µM

Compound: N=C(N)c1ccc(OCCCCCOc2ccnc(C(=N)N)c2)cn1 [Compound 12, 4-((5-((6-carbamimidoylpyridin-3-yl)oxy)pentyl)oxy)picolinimidamide]
- microsomal CLint (Human microsomal CL rate): 7.5 µL/min/mg
- IC50 (NCI-H69): 1.58 µM

Compound: N=C(N)c1ccc(O[C@H]2CC[C@H](Oc3ccc(C(=N)N)nc3)CC2)cc1 [Compound 13, 5-(((1r,4r)-4-(4-carbamimidoylphenoxy)cyclohexyl)oxy)picolinimidamide]
- microsomal CLint (Human microsomal CL rate): 11 µL/min/mg
- IC50 (NCI-H69): 2.11 µM

Compound: N=C(N)c1ccc(O[C@H]2CC[C@@H](Oc3ccc(C(=N)N)nc3)CC2)cc1 [Compound 14, 5-(((1s,4s)-4-(4-carbamimidoylphenoxy)cyclohexyl)oxy)picolinimidamide]
- microsomal CLint (Human microsomal CL rate): 15.3 µL/min/mg
- IC50 (NCI-H69): 1.1 µM

Compound: N=C(N)c1cccc(OCCCCCOc2ccnc(C(=N)N)c2)c1 [Compound 15, 4-(5-(3-carbamimidoylphenoxy)pentyloxy)picolinimidamide]
- microsomal CLint (Human microsomal CL rate): 3.2 µL/min/mg
- IC50 (NCI-H69): 0.49 µM

Compound: N=C(N)c1ccc(OCCCCOc2ccc(C(=N)N)nc2)cn1 [Compound 16, 5,5′-(butane-1,4-diylbis(oxy))dipicolinimidamide]
- microsomal CLint (Human microsomal CL rate): 4.6 µL/min/mg

Compound: N=C(N)c1ccc(OCCCOc2ccc(C(=N)N)nc2)cc1 [Compound 17, 5-(3-(4-carbamimidoylphenoxy)propoxy)picolinimidamide]
- microsomal CLint (Human microsomal CL rate): 8.1 µL/min/mg

Compound: N=C(N)c1ccc(CC[C@@H]2CCC[C@H](CCc3ccc(C(=N)N)nc3)C2)cc1 [Compound 18, 5-{2-[(1R,3S)-3-[2-(4-carbamimidoylphenyl)ethyl]cyclohexyl]ethyl}pyridine-2-carboximidamide]
- microsomal CLint (Human microsomal CL rate): 9.5 µL/min/mg

Compound: N=C(N)c1ccc(OCCCCCOc2ccnc(C(=N)N)c2)cc1 [Compound 19, 4-{[5-(4-carbamimidoylphenoxy)pentyl]oxy}pyridine-2-carboximidamide]
- microsomal CLint (Human microsomal CL rate): 27.7 µL/min/mg
- IC50 (HEP3B2.7-1): 0.222 µM
- IC50 (SK-HEP-1): 0.84 µM

Compound: N=C(N)c1ccc(OCCCCCOc2ccc(C(=N)N)nc2)cn1 [Compound 20, 5-({5-[(6-carbamimidoylpyridin-3-yl)oxy]pentyl}oxy)pyridine-2-carboximidamide]
- microsomal CLint (Human microsomal CL rate): 4 µL/min/mg

Compound: N=C(N)c1cc(OCCCCCOc2ccnc(C(=N)N)c2)ccn1 [Compound 21]
- microsomal CLint (Human microsomal CL rate): 5.1 µL/min/mg
